According to patent publication US12422427B2, “Compounds for treatment of diseases and methods of screening therefor” (Max-Planck-Gesellschaft zur Förderung der Wissenschaften …, priority 2018, dated 2025):

What was measured:
[1] = tested on: HeLa cells expressing FUS GFP; experiment: HeLa cell compound dose responses (FUS GFP, arsenate stress); assay type: cell-based
Description: Small dilution steps rather than concentration replicates were selected as it provides greater statistical power from a set number of samples. Final DMSO concentration was 0.08% in all samples, and each plate included at least 12 control wells with 0.08% DMSO. Cytoplasmic FUS droplet number and nuclear/cytoplasm partition of FUS were analysed using custom macros in ImageJ. Nuclei were identified by intensity thresholding of the blue fluorescence image following a 5 px Gaussian blur. Cytoplasmic FUS droplets by intensity thresholding of the green image following a 10 px weight 0.9 unsharp filter masked by the thresholded nuclei, and nuclear FUS droplets by intensity thresholding of the green image following a 5 px weight 0.9 unsharp filter and 10 px rolling ball background subtraction masked to only include thresholded nuclei. The ratio of cytoplasmic FUS drops to nuclei was taken as cytoplasmic FUS droplets per cell per field of view, and p, the ratio of partition of FUS to the nucleus and the cytoplasm, was derived from a=Vn/vt, the ratio of nuclear to total green signal per field of view, where p=a/(1−a). […] Six fields of view were captured and analysed per condition.

HeLa cells = experiment: 15N lipoamide uptake by HeLa cells measured by NMR; assay type: in vitro ADME; conditions: for uptake of the lipoamide present in the medium: 100 μM, 1 h, 37° C., stressed or unstressed HeLa cells
Description: The concentration of lipoamide relative to protein required for an effect on condensate liquidity in vitro was higher than the EC50 on cells, on the order of 100 μM lipoamide with 1 μM FUS (FIGS. 1D-1E, FIGS. 5A-5E). In cells, FUS concentrations are high for a protein (low μM)^41 and the cellular EC50 was on the order of 10 μM (FIG. 2A, FIG. 3D). We also saw inverse effects of lipoamide on FUS-containing condensates in vitro (more, larger condensates) and in cells (fewer stress granules). To reconcile this difference and to understand the relevance of the effects in vitro in cells, we wanted to know the actual concentrations of compounds in cells. In principle, isotopic labelling allows direct monitoring of isotopically-labelled compounds even in complex environment through appropriate spectroscopy. To use this approach, ^15N-labelled lipoamide (FIG. 7A) was synthesised.
Uptake of ^15N lipoamide by cells from the medium was quantified by NMR following incubation of lipoamide at 37° C. for 1 h either in the absence or presence of HeLa cells (FIG. 7B). Cellular uptake was determined by calculating the difference between medium incubated with cells or without cells for combinations of either R-(+) or (±)-lipoamide and either unstressed or stressed cells (FIG. 7C). For one sample, stressed cells with R-(+)-lipoamide, we confirmed that strong signal from the cell fraction was consistent with uptake of a large proportion of lipoamide (FIG. 7C). Both R-(+) and ±-lipoamide measurements indicated uptake of 35±11% (n=3 and 2, respectively) of the lipoamide present in the medium. No significant difference was observed either for uptake of R-(+) compared to (±)-lipoamide or stressed compared to unstressed cells (FIG. 7D).
For analysis of ^15N lipoamide uptake by cells HeLa cells expressing FUS GFP were grown in 6 well plates to 10^6 cells/well in DMEM supplemented with 10% FCS. To simultaneously stress and treat cells, the medium was replaced with 0.6 ml medium supplemented with potassium arsenate and 100 μM ^15N racemic or R-(+)-lipoamide for 1 h at 37° C. High concentrations of compound were used to maximise the signal. […] Wells were prepared for all combinations of no compound (1% DMSO control), ^15N […] or ^15N R-(+)-lipoamide, with or without potassium arsenate and with or without cells. ^1H detected ^15N edited ^1H sensitivity enhanced HSQ was used to quantify ^15N lipoamide concentration (see Supplementary Information). Solvent, pH and temperature sensitivity of the primary amide proton chemical shifts were determined using dummy samples assembled from the appropriate solvent and added compounds.
^1H detected ^15N edited ^1H sensitivity enhanced HSQC NMR (referred to here as (^15N) ^1H) spectra were acquired on a narrow bore Varian solution state spectrometer operating with a fixed field strength of 14.1 T, equipped with a room-temperature probe.
The free induction decay was recorded for an acquisition time of 0.0624 and a sweep with of 8 kHz recorded over 1000 and a recovery delays of 1 s. […] The J coupling between the amide protons and the ^15N in H2O samples was determined to be 96 Hz, and so the transfer times of 1/4 J in the INEPT portions of the pulse sequence were set to 2.6 ms. […]

[2] = tested on: FUS GFP localisation in stressed HeLa cells; experiment: Ex vivo HeLa cell screen of FUS GFP localisation under arsenate stress; assay type: cell-based; conditions: 10 μM compound 1 h pre-treatment, then 1 h 1 mM potassium arsenate
Text: The inventors developed a cell-based screen using a HeLa cell line that stably expresses GFP-tagged FUS at near-endogenous levels. While not required for stress granule formation, FUS is a well-characterised protein with a domain structure typical of stress granule proteins. In the absence of cellular stress, FUS-GFP primarily localizes to the nucleus, where it is partially excluded from the nucleolus and localises to small puncta called paraspeckles (FIG. 1A). These are nuclear droplets implicated in retaining RNA in the nucleus for rapid stress response. Cells were pre-treated with 10 μM compound from a compound library for 1 h, then the cells were stressed with 1 mM potassium arsenate (still in the presence of compound) (FIG. 1B) and monitored FUS localization to stress granules. Arsenate disrupts antioxidant responses by reacting with thiol groups, blocks the tricarboxylic acid (TCA) cycle by reacting with the thiols in vital lipoyl moieties and causes general oxidative damage. In untreated stressed cells, FUS is partly exported to the cytoplasm where, in combination with other proteins and mRNA, it phase separates to form liquid-like stress granules surrounded by cytoplasm depleted in FUS (FIG. 1A).
Many compounds affected stress granule formation. Multi-parameter image analysis, including cytoplasmic puncta number, nuclear puncta number, and nuclear/cytoplasm partition, was used to rank compounds by strength of effect on FUS localisation in stressed cells (FIG. 1C). […] These were the polysome stabilising compound emetine, which prevents release of mRNA, and the heavy metal chelating compound dimercaprol (which should sequester the stressor). Edaravone, thought to be an antioxidant and used as an ALS therapeutic in Japan and the US, had no effect on FUS localization in arsenate-stressed cells.
The effect of compounds on FUS GFP localisation in stressed HeLa cells was screened in 384 well format. 4000 cells were seeded per well and incubated for 24 h, after which the medium was replaced with 40 μl fresh medium and compound added to a final concentration of 10 μM by acoustic dispensing (Labcyte Echo 550). The final concentration of DMSO in all samples was 0.1%. […]
For the initial screen FUS GFP signal was analysed using KNIME. […] Particle number and sum area, granularity at 9, 10 & 11 px (cytoplasm) or 1, 5, 6, 7, 8 & 9 px (nucleus) scale, texture at 10 px scale and integrated signal intensity were measured for the nucleus and cytoplasm in the green (FUS GFP) channel. Z scores (z=(x−μ)/σ where x is the observed value, μ the control mean and σ the control standard deviation) relative to the DMSO treated control wells on each plate were calculated for each of the parameters, and combined into the Mahalanobis distance.

## O=C(O)CCCCC(S)CCS (racemic) [(±)-dihydrolipoic acid, 6,8-dimercaptooctanoic acid]
[1]; 1 h 1 mM arsenate stress
  EC50 reducing stress granule number, compared among compounds: comparable EC50

## [15NH2]C(=O)CCCCC1CCSS1 (racemic) [±-lipoamide, ^15N (±)-Lipoamide]
HeLa cells
  uptake of the lipoamide present in the medium: 35±11%

## SCCCS [1,3-propanedithol, 1,3-propanedithiol, reference compound]
[1]; up to 100 μM
  effect on stress granule number: no effect

## CC1=NN(c2ccccc2)C(=O)C1 [Edaravone]
[2]
  effect on stress granules / FUS localisation in stressed cells: no effect

## [15NH2]C(=O)CCCC[C@@H]1CCSS1 [R-(+)-lipoamide, ^15N R-(+)-Lipoamide]
HeLa cells
  uptake of the lipoamide present in the medium: 35±11%

## NC(=O)CCCCC1CCSS1 (stereo not drawn) [^15N lipoamide]
HeLa cells; calculated from percentage uptake, number of cells and their volume
  average intracellular concentration: 5.0 ± 1.6 mM

## OCC(S)CS (stereo not drawn) [dimercaprol]
[2]
  effect on stress granules / FUS localisation in stressed cells: reduction of stress granules

## CC[C@H]1CN2CCc3cc(OC)c(OC)cc3[C@@H]2C[C@@H]1C[C@H]1NCCc2cc(OC)c(OC)cc21 [emetine]
[2]
  effect on stress granules / FUS localisation in stressed cells: reduction of stress granules

## CC1=CC(=O)c2ccccc2C1=O [menadione]
[2]
  effect on stress granules / FUS localisation in stressed cells: did not reduce stress granule number
